Each block holds one substance with its values, some of them ahead of it. Where no end group is shown, it is not given here.
What was measured:
[1] = test system: GST-fused LC8; assay: GST pull-down of LC8 and sLCA5; assay type: binding; details: GST-LC8 bait, MBP-, 6x-His-fused sLCA5 prey, PBS, 1 mM DTT, room temperature; result in words
Procedure: For the pull-down experiments, GST-fused LC8 was used as bait, and MBP-, 6x-His-fused LCA5 variants as prey. For controls, GST and MBP were used. Proteins were expressed in 100 ml cultures of E. coli BL21 (DE3) Rosetta cells as described above. Cells were harvested, resuspended in 5 ml PBS supplemented with 1 mg/ml lysozyme and 1 mM DTT, sonicated and clarified by centrifugation. 20 μl of Glutathione Sepharose 4B (Macherey–Nagel) (75%) resin was used for each experiment. Baits were incubated with the resin for 1 h at room temperature, then washed with PBS supplemented with 1 mM DTT. Prey proteins were added and incubated for one hour. The beads were washed and eluted by boiling in a 2 × SDS sample buffer and analyzed in tricine SDS page according to the protocol of Schagger et al[43].

[2] = target: T1, LC8 (Homo sapiens, UniProt Q96FJ2); assay: isothermal titration calorimetry, LCA5 peptide injected to LC8; assay type: binding; details: MicroCal PEAQ-ITC, PBS pH 7.4, 1 mM TCEP, 25 °C; peptide injected 18 x 2 μl into LC8
T1 construct: 6xHis (N); made in house; host or cells: E. coli BL21 (DE3) Rosetta
Procedure: (§1) LC8 and MBP-fused LCA5 constructs were prepared in PBS supplemented with 1 mM TCEP. Before measurement, protein samples were dialyzed overnight in PBS pH 7.4 (Orange Scientific, OrDial D14 membrane). Peptides were diluted from stock with the buffer used for dialysis. The concentration of samples was determined based on absorbance at 280 nm in the case of proteins, and 205 nm for the peptide. Experiments were performed using MicroCal PEAQ-ITC (Malvern Panalytical), LCA5 peptides were measured at 25 °C, proteins were analyzed at 37 °C. Lebercilin peptide was injected into the cell 18 times 2 μl volumes, with 5 min timing between injections. In case of the protein, LCA5 was placed in the sample cell, and LC8 was injected during 37 injections, 1 μl each. The results were evaluated using MicroCal PEAQ-ITC Analysis Software.

[3] = target: T1, LC8; assay: LC8 binding of the second (CQS) motif at the peptide level; details: residues 317–324 of LCA5; method not stated; result in words
Procedure: as §1, with “In case of the protein, LCA5 was placed in the sample cell, and LC8 was injected during 37 injections, 1 μl each.” left out
Fluorescence polarization experiments were carried out at 25 °C in PBS supplemented by 2 mM TCEP and 0.05% Brij using a Synergy H4 (BioTek Instruments) plate reader. […] Briefly, 50 nM labeled BMF peptide was mixed with LC8 in a concentration to achieve 80% saturation, determined by direct titration (12 μM at 80% saturation). Subsequently, the above-mentioned complex was titrated with a two-fold dilution series of competitor LCA5 peptide (DLCTKGVQTME) (start at 500 μM) and the decrease of polarization was recorded. To determine the Kd of the LCA5-peptide-LC8 complex, first the Kd of the BMF-LC8 complex was calculated. […]

[4] = target: T1, LC8; assay: direct fluorescence polarization titration of labeled BMF peptide with LC8; assay type: binding; details: 50 nM FITC-labeled BMF, PBS, 2 mM TCEP, 0.05% Brij, 25 °C
Procedure: Fluorescence polarization experiments were carried out at 25 °C in PBS supplemented by 2 mM TCEP and 0.05% Brij using a Synergy H4 (BioTek Instruments) plate reader. N-terminally fluorescein 5-isothiocyanate (FITC) labeled, known binding peptide of LC8, BMF (TSQEDKATQTL) was used as a reporter peptide to form LC8-BMF complex and LCA5 was applied to compete the BMF peptide. Briefly, 50 nM labeled BMF peptide was mixed with LC8 in a concentration to achieve 80% saturation, determined by direct titration (12 μM at 80% saturation). Subsequently, the above-mentioned complex was titrated with a two-fold dilution series of competitor LCA5 peptide (DLCTKGVQTME) (start at 500 μM) and the decrease of polarization was recorded. To determine the Kd of the LCA5-peptide-LC8 complex, first the Kd of the BMF-LC8 complex was calculated. The polarization signal recorded at direct titration of BMF peptide with LC8 was plotted against the concentration of LC8. Then the Kd of the BMF-LC8 complex was calculated by the fitting of a direct binding equation in Origin 8. To determinate the Kd of the competitor peptide, the measured polarization was plotted against the concentration of LCA5 peptide in the competitive titration and the data was fitted by the competitive binding equation in Origin 8 where Kd of the BMF-LC8 complex was one of the parameters of the competitive equation. […]

[5] = target: T1, LC8; details: literature, ref (6)-(10) of supplement, cited from earlier work
Excerpt: According to the standard model of LC8 interactions, the dimeric interface of LC8 presents two interaction sites for partners which also form dimers, implying a 1:1 stoichiometry. Partners with two adjacent binding motifs, like ANA2, follow a 1:2 stoichiometry by binding two LC8[18]. Intriguingly, we observed a 2:1 LCA5:LC8 stoichiometry for the ΔCQS and the ΔVQT mutants, which means that one LC8 dimer binds four LCA5 chains (Supplementary Table S1). A reasonable interpretation is that the native LCA5 is dimeric and thus a pair of LCA5 dimers bind to one dimeric LC8. In such a situation, one i ... || page 10: Composition of complexes Number of LC8 Number of Ratio of LCA5 LC8 binding monomeric binding monomeric LC8 in monomers to LC8 Gene name sites partners in complex complex monomers SWA (6) 1 2 2 1:1 DYNC1I1 (7) 1 2 2 1:1 WDR34-WDR60 3 1+1 6 1:3 (8) ANA2 (9) 2 2 4 1:2 ASCIZ (10) 11 2 22 1:11 sLCA5-WT 2 4 4 1:1 sLCA5-single 1 4 2 2:1 mutants Supplementary Table S1. Stoichiometries of various LC8 binding partners in complex with LC8. Known LC8 binding partners according to literature data always form dimers upon LC8 binding. The stoichiometry is basically 1:1 in case of one LC8 binding sit ...

T1 sequence (Q96FJ2 whole entry): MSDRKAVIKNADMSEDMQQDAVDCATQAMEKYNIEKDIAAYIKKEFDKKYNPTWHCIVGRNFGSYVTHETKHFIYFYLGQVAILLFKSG

Substance: CAAAAAAM: sLCA5 with further alanine mutations introduced into the VQT motif
- interaction with LC8 (GST pull-down) [1]: persisted despite the mutations

- Kd [2]: 2600 nM
Substance: DLCTKGVQTME [LCA5 peptide]

Substance: KNAACQSD
- binding of the second motif to LC8 at the peptide level [3]: could not be verified at the peptide level

- LC8 concentration at 80% saturation of labeled BMF peptide [4]: 12 µM
Substance: TSQEDKATQTL [BMF]

Substance: WDR34-WDR60: known LC8 binding partner, literature
- Number of monomeric LC8 in complex ([5]; composition of complexes): 6
- Number of monomeric binding partners in complex ([5]; composition of complexes): 1+1
- LC8 binding sites [5]: 3
